Where “and” joins values, the source holds several entries; their conditions need not be identical. Identical values can stand only once.
System: rat uterine decidualization
Test: Rat decidualization assay
Format: in vivo
Conditions: dose 1 mg/kg, read-out: Decidualization, percentage inhibition at the dose specified
Description: 1. Rat Decidualization Assay
b. Animals (RACUC Protocol #5002)
The animals are treated once daily for seven days.
Uteri are removed and trimmed of fat.
Body weight: Mean total animal body weight (default-kg)
Decidual response: [(D-C)/C]x100%

| SMILES | inhibition at 1 mg/kg |
| --- | --- |
| CC1(C)OC(=O)Nc2ccc(-c3ccc(F)c(C#N)c3)cc21 [Compound 1, 5-(4,4Dimethyl-2-oxo-1,4-dihydro-2H-benzo[d][1,3]oxazin-6-yl)-2-fluoro-benzonitrile] | 80% |

Same assay, conditions: dose 3 mg/kg, read-out: Decidualization, percentage inhibition at the dose specified

| SMILES | inhibition at 3 mg/kg |
| --- | --- |
| CC1(C)OC(=O)Nc2ccc(-c3cc(F)cc(Cl)c3)cc21 [Compound 14, 6-(3-Chloro-5fluoro-phenyl)-4,4dimethyl-1,4-dihydro-benzo[d][1,3]oxazin-2-one] | 50% |

Same assay, conditions: dose 10 mg/kg

| SMILES | Decidualization, percentage inhibition at the dose specified |
| --- | --- |
| Cc1cc(C#N)sc1-c1ccc2c(c1)C1(CCCCC1)OC(=O)N2 [Compound 10, 5-(1,2-Dihydro-2-oxospiro[4H-3,1-benzoxazine-4,1-cyclohexan]-6-yl)-4-methyl-2-thiophenecabonitrile] | 50% @ 1O |

Same assay, conditions: half-maximal decrease in EC50 progesterone induced decidual response

| Decidualization IC50 | SMILES |
| --- | --- |
| 1 mg/kg | CC1(C)OC(=O)Nc2ccc(-c3ccc(F)c(Cl)c3)cc21 [Compound 20, 6-(3-Chloro-4-fluoro-phenyl)-4,4-dimethyl-1,4-dihydro-benzo[d][1,3]oxazin-2-one] |
| 1.5 mg/kg | Cc1cc(C#N)sc1-c1ccc2c(c1)C(C)(C)OC(=O)N2 [Compound 18, 5-(4. 4-Dimethyl-2-oxo-1. 4-dihydro-2H-benzo[d][1,3]oxazin-6-yl)-4-methyl-thiophene-2-carbonitrile] |
| 0.35 mg/kg | CC1(C)OC(=O)Nc2ccc(-c3cc(F)cc(C#N)c3)cc21 [Compound 19, 3-(4,4-Dimethyl-2-oxo-1,4-dihydro-2H-benzo[d][1,3]oxazin-6-yl)-5-fluorobenzonitrile] |
| 2.3 ± 0.46 mg/kg | CC1(C)OC(=O)Nc2ccc(-c3csc(C#N)c3)cc21 [Compound 17, 4-(4.4-Dimethyl-2-oxo-1.4dihydro-2H-benzo[d][1,3]oxazin-6-yl)thiophene2-carbonitrile] |

Same assay, conditions: s.c., average of dose-response curves

| Estimated average EC50 (decidual response) | SMILES |
| --- | --- |
| 0.10 mg/kg | C#C[C@]1(O)CC[C@H]2[C@@H]3CCC4=CC(=O)CC[C@@H]4[C@H]3CC[C@@]21CC [Levonorgestrel, reference compound] |
| 5.62 mg/kg | CC(=O)[C@H]1CC[C@H]2[C@@H]3CCC4=CC(=O)CC[C@]4(C)[C@H]3CC[C@]12C [Progesterone, reference compound] |
| 0.10 mg/kg | C#C[C@]1(O)CC[C@H]2[C@@H]3CCC4=CC(=O)CC[C@@H]4[C@H]3C(=C)C[C@@]21CC [3-Ketodesogestrel, reference compound] |

Same assay, conditions: s.c., individual studies

| Estimated EC50 for uterine wet weight (decidual response) | SMILES |
| --- | --- |
| 5.50 mg/kg | CC(=O)[C@H]1CC[C@H]2[C@@H]3CCC4=CC(=O)CC[C@]4(C)[C@H]3CC[C@]12C [Progesterone, reference compound] |
| 0.10 mg/kg and 0.06 mg/kg and 0.11 mg/kg | C#C[C@]1(O)CC[C@H]2[C@@H]3CCC4=CC(=O)CC[C@@H]4[C@H]3C(=C)C[C@@]21CC [3-Ketodesogestrel, reference compound] |

| SMILES | Estimated EC50 for uterine wet weight (decidual response) |
| --- | --- |
| C#C[C@]1(O)CC[C@H]2[C@@H]3CCC4=CC(=O)CC[C@@H]4[C@H]3CC[C@@]21CC [Levonorgestrel, reference compound] | 0.08 mg/kg and 0.12 mg/kg and 0.09 mg/kg (2×) |

System: not given
Test: not given
Conditions: not given

| melting point | SMILES |
| --- | --- |
| 250 to 253 °C | N#Cc1cc(F)cc(-c2ccc3c(c2)C2(CCCCC2)OC(=O)N3)c1 [Example 107, 3-(1,2-Dihydro-2-oxospiro[4H-3,1-benzoxazine-4,1-cyclohexan]-6-yl)-5-fluorobenzonitrile] |
| 197 to 198 °C | CC1(C)OC(=O)Nc2c(O)cc(-c3cc(F)cc(C#N)c3)cc21 [Example 129, 3-(4,4-Dimethyl-8-hydroxy-2-oxo-1,4-dihydro-2H-3,1-benzoxazin-6yl)-5-fluorobenzonitrile] |
| 255 to 260 °C | CC1(C)OC(=O)Nc2ccc(-c3cc(C#N)cs3)cc21 [Example 90, 5-(4,4-Dimethyl-2-oxo-1,4-dihydro-2H-benzo[d][1,3]oxazin-6-yl)thiophene-3-carbonitrile] |
| 167 to 168 °C | COc1cccc(-c2ccc3c(c2)NC(=O)OC3(C)C)c1 [Example 49, 7-(3-Methoxy-phenyl)-4,4-dimethyl-1,4-dihydro-benzo[d][1,3]-oxazin-2-one] |
| 140 to 145 °C | O=C1Nc2ccc(-c3cccc(Cl)c3)cc2C2(CCCC2)O1 [Example 31, 6-(3-Chlorophenyl)-spiro-[4H-3,1-benzoxazine-4,1′-cyclopentane]-2(1H)-one] |
| 218 to 220 °C | CC1(C)OC(=O)Nc2ccc(-c3cc(F)cc(CC#N)c3)cc21 [Example 133, 3-(4,4Dimethyl-2-oxo-1,4-dihydro-2H-benzo[d][1,3]-oxazin-6-yl)-5-fluoro-phenylacetonitrile] |
| 155 to 156 °C | CC1OC(=O)Nc2ccc(-c3cccc(Cl)c3)cc21 (stereo not drawn) [Example 9, 6-(3-Chloro-phenyl)-4-methyl-1,4-dihydro-benzo[d][1,3]oxazin-2-one] |
| 167 to 168 °C | CCCCc1cc(C#N)sc1-c1ccc2c(c1)C(C)(C)OC(=O)N2 [Example 113, 5-(4,4-Dimethyl-2-oxo-1,4-dihydro-2H-benzo[d][1,3]oxazin-6-yl)4-n-butyl-thiophene-2-carbonitrile] |
| 181 to 182 °C | COc1cc(F)cc(-c2ccc3c(c2)C(C)(C)OC(=O)N3)c1 [Example 82, 6-(3-Fluoro-5-methoxy-phenyl)-4,4-dimethyl-1,4-dihydro-benzo[d][1,3]oxazin-2-one] |
| 184 to 187 °C | CC1(C)OC(=O)Nc2ccc(-c3cc(CC#N)ccc3F)cc21 [Example 134, 3-(4,4-Dimethyl-2-oxo-1,4-dihydro2H-benzo[d][1,3]-oxazin-6-yl)-4-fluoro-phenylacetonitrile] |
| 150 to 151 °C | CCC1(CC)NC(=O)Oc2ccc(-c3cccc(Cl)c3)cc21 [Example 25, 6-(3-Chlorophenyl)-4,4-diethyl-1,4-dihydrobenzo[d][3,1]oxazin-2-one] |
| 210 to 212.5 °C | CC1(C)OC(=O)Nc2ccc(-c3cccc(CC#N)n3)cc21 [Example 132, [6-(4,4-dimethyl-2-oxo-1,4dihydro-2H-3,1-benzoxazin-6-yl)pyridin-2-yl]acetonitrile] |
| 255 to 257 °C | CC1(C)OC(=O)Nc2ccc(-c3ccc(Cl)cc3)cc21 [Example 8, 6-(4-Chloro-phenyl)-4,4-dimethyl-1,4-dihydro-benzo[d][1,3]-oxazin-2-one] |
| 244 to 245 °C | CC1(C)OC(=O)Nc2ccc(-c3cccc([N+](=O)[O-])c3)cc21 [Example 13, 4,4Dimethyl6-(3-nitrophenyl)-1,4dihydrobenzo[d][1,3]oxazin-2-one] |
| 128 to 129 °C | C=CCC1(C)OC(=O)Nc2ccc(-c3cccc(Cl)c3)cc21 (stereo not drawn) [Example 36, 4-Allyl-6-(3-chlorophenyl)-4-methyl-1,4-dihydro-benzo[d][1,3]oxazin-2-one] |
| 230 to 232 °C | N#Cc1cc(-c2ccc3c(c2)C2(CCCCC2)OC(=O)N3)cs1 [Example 108, 4-(1,2-Dihydro-2-oxospiro[4H-3,1-benzoxazine-4,1-cyclohexan]-6-yl)2-thiophenecarbonitrile] |
| 245 to 246 °C | O=C1Nc2ccc(-c3cccc([N+](=O)[O-])c3)cc2C2(CCCCC2)O1 [Example 32, 6-(3—Nitrophenyl)-spiro[4H-3,1-benzoxazine-4,1′-cyclohexan]-2(1H)-one] |
| 180 to 185 °C | Cn1c(-c2ccc3c(c2)C(C)(C)OC(=O)N3)ccc1[N+](=O)[O-] [Example 99, 4,4-Dimethyl-6-(1-methyl-5-nitro-1H-pyrrol-2-yl)-1,4-dihydro-benzo [d][1,3]oxazin-2-one] |
| 238 to 240 °C | CC1(C)OC(=O)Nc2ccc(-c3cccc(-c4nnn[nH]4)c3)cc21 [Example 52, 4,4-Dimethyl-6-[3-(1H-tetrazol-5-yl)-phenyl]-1,4dihydrobenzo[d][1,3]oxazin-2-one] |
| 125 °C | CC(C)(C)OC(=O)n1c(-c2ccc3c(c2)C(C)(C)OC(=O)N3)ccc1[N+](=O)[O-] [Example 95, 2-(4,4Dimethyl-2-oxo-1,4-dihydro-2H-benzo[d][1,3]oxazin-6-yl)-5-nitro-pyrrole-1-carboxylic acid tert-butyl ester] |
| 142 to 143 °C | CN1C(=O)OC(C)(C)c2cc(-c3cccc(Br)c3)ccc21 [Example 126, 6-(3-Bromophenyl)-1,4,4-trimethyl-1,4-dihydro-2H-3,1-benzoxazin-2-one] |
| 187 to 188 °C | CC1(Cc2ccccc2)OC(=O)Nc2ccc(-c3cccc(Cl)c3)cc21 (stereo not drawn) [Example 40, 4-Benzyl-6-(3-chloro-phenyl)-4-methyl-1,4-dihydro-benzo[d][1,3]oxazin-2-one] |
| 253 to 256 °C | CC1(C)OC(=O)Nc2ccc(-c3ccc(CC#N)c(F)c3)cc21 [Example 135, 4-(4,4Dimethyl-2-oxo-1,4-dihydro-2H-benzo[d][1,3]oxazin-6yl)-2-fluorophenylacetonitrile] |
| 230 °C | Cn1cccc1-c1ccc2c(c1)C(C)(C)OC(=O)N2 [Example 98, 4,4-Dimethyl-6-(1-methyl-1H-pyrrol-2-yl)-1,4-dihydro-benzo[d][1,3]oxazin-2-one] |
| 216 to 217 °C | CC1(C)OC(=O)Nc2c(Br)cc(-c3cc(F)cc(C#N)c3)cc21 [Example 124, 3-(8Bromo-4,4-dimethyl-2-oxo-1,4-dihydro-2H-3,1-benzoxazin-6-yl)-5-fluorobenzonitrile] |
| 169 to 171 °C | COCN1C(=O)OC(C)(C)c2cc(-c3cc(F)cc(C#N)c3)ccc21 [Example 67, 3-Fluoro-5(1-methoxymethyl-4,4-dimethyl-2-oxo-1,4-dihydro-2H-benzo[d][1,3]oxazin-6-yl)-benzonitrile] |
| 262 to 263 °C | CC1(C)OC(=O)Nc2ccc(-c3coc(C=O)c3)cc21 [Example 144, 4-(4,4-Dimethyl-2-oxo-1,4-dihydro-2H-benzo[d][1,3]oxazin-6-yl)-furan-2-carbaldehyde] |
| 156 to 157 °C | CC1(C)OC(=O)Nc2ccc(-c3cccc(C(=O)c4ccccc4)c3)cc21 [Example 51, 6-(3-Benzoyl-phenyl)-4,4-dimethyl-1,4dihydro-benzo[d][1,3]-oxazin-2-one] |
| 210 to 211 °C | COc1ccc(-c2ccc3c(c2)C(C)(C)OC(=O)N3)cc1F [Example 138, 6-(3-Fluoro-4-methoxy-phenyl)4,4-dimethyl-1,4-dihydro-benzo[d][1,3]-oxazin-2-one] |
